The values below are quoted from earlier work in article PMC11316111, “Mechanism of allosteric inhibition of human p97/VCP ATPase and its disease mutant by triazole inhibitors” (Communications Chemistry, 2024).

The structures appear in SMILES notation.

The target in the data set is T1, wild-type p97 (p97^WT) (Homo sapiens, UniProt P55072).
T1 construct: made in house
Set-up: method as in PMID 26822609. The following applies: read-out: IC50 (p97 ATPase); cited from earlier work.

T1 sequence (P55072 whole entry): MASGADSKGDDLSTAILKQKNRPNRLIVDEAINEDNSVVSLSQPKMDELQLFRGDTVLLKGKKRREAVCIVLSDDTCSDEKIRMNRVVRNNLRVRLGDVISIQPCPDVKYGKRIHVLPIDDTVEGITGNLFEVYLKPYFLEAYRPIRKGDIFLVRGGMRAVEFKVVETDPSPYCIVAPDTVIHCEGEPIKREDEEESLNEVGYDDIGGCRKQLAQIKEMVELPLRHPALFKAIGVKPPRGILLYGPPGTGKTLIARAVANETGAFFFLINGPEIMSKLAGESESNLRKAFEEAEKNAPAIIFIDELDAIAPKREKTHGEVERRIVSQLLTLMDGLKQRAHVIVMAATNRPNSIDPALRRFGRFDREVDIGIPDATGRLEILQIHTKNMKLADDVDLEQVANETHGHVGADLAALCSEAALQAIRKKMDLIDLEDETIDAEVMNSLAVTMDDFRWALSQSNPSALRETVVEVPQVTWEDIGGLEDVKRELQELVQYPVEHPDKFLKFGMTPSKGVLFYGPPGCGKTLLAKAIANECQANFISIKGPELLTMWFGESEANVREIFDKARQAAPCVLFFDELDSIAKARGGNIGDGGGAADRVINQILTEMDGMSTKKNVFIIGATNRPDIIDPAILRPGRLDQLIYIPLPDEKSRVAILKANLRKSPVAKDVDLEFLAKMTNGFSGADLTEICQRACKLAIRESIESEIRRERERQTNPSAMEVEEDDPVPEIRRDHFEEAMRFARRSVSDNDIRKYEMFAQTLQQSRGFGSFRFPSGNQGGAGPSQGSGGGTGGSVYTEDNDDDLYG

Usually IC50 stands for the concentration needed to halve the response being measured. `CC(C)N1CCN(CCNC2CCN(c3cccc(-c4cc5cc(F)ccc5[nH]4)c3)CC2)CC1` [UPCDC30245]: the IC50 is 27 nM.
